Assay results: patent US10781181B2, “N-((het) arylmethyl)-heteroaryl-carboxamides compounds as plasma kallikrein inhibitors” (Kalvista Pharmaceuticals Limited, priority 2014, dated 2020)
pIC50: −log10 of the molar value.

Tests used:
[1] = target: Human KLK1 (Homo sapiens (Human), UniProt P06870); test: Determination of the IC50 for KLK1; type: biochemical; settings: human KLK1, 25° C., substrate H-DVal-Leu-Arg-AFC
Procedure: Determination of the IC50 for KLK1
(§1) Human KLK1 (Callbiochem) was incubated at 25° C. with the fluorogenic substrate H-DVal-Leu-Arg-AFC and various concentrations of the test compound. Residual enzyme activity (initial rate of reaction) was determined by measuring the change in […] at 410 nm and the IC50 value for the test compound was determined.

[2] = target: Human plasma kallikrein (Homo sapiens (Human), UniProt P03952); test: Determination of the IC50 for plasma kallikrein; type: biochemical; settings: read-out: IC50 (human PKal)
Procedure: Determination of the IC50 for Plasma Kallikrein
as §1, with “plasma kallikrein (Protogen)” for “KLK1 (Callbiochem)”, “H-DPro-Phe-Arg-AFC” for “H-DVal-Leu-Arg-AFC”

Chain of Human plasma kallikrein (P03952 391-638): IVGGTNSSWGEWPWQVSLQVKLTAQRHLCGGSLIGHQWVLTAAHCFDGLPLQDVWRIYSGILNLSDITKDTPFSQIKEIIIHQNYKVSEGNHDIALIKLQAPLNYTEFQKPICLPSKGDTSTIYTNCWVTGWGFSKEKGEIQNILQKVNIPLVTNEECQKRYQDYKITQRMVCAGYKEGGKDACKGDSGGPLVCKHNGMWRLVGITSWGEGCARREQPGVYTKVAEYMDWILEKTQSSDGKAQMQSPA
Chain of Human plasma kallikrein (P03952 20-390 partner): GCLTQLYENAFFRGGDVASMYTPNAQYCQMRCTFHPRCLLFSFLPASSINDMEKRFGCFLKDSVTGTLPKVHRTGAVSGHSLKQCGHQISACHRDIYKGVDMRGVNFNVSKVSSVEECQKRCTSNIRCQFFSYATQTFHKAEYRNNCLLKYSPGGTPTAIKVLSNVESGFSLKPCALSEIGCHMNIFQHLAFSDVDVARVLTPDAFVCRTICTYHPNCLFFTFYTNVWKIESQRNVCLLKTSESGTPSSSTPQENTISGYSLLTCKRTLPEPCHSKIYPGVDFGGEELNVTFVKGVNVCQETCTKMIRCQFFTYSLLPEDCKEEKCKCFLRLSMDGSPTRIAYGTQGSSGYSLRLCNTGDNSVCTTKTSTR
Chain of Human KLK1 (P06870 25-262): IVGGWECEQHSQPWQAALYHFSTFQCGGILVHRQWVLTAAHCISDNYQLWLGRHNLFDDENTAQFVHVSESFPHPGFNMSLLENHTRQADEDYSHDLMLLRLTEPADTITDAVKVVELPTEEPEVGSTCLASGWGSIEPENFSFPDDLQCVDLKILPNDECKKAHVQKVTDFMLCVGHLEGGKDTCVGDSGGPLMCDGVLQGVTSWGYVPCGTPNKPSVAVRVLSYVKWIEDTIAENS

| SMILES | pIC50 [1] | pIC50 [2] |
| --- | --- | --- |
| N#Cc1nn(Cc2ccc(Cn3ccccc3=O)cc2)cc1C(=O)NCCOc1cccc(Cl)c1 [Example 38, N-[2-(3-chlorophenoxy)ethyl]-3-cyano-1-({4-[(2-oxopyridin-1-yl)methyl]phenyl}methyl)pyrazole-4-carboxamide] | < 4.40 | 8.19 |
| Nc1nn(Cc2cccc(C(=O)O)c2)cc1C(=O)NCCOc1cccc(Cl)c1 [Example 63, 3-[(3-amino-4-{[2-(3-chlorophenoxy)ethyl]carbamoyl}pyrazol-1-yl)methyl]benzoic acid] | < 4.40 | < 5.00 |
| Nc1nn(Cc2ccc(Cn3ccccc3=O)cc2)cc1C(=O)NCC(=O)Nc1ccc(Cl)cc1 [Example 4, 2-{[3-amino-1-({4-[(2-oxopyridin-1-yl)methyl]phenyl}methyl)pyrazol-4-yl]formamido}-N-(4-chlorophenyl)acetamide] | < 5.00 | < 5.00 |
| COCc1nn(Cc2ccc(Cn3ccccc3=O)cc2)cc1C(=O)NCCOc1cc(Cl)cnn1 [Example 46, N-{2-[(5-chloropyridazin-3-yl)oxy]ethyl}-3-(methoxymethyl)-1-({4-[(2-oxopyridin-1-yl)methyl]phenyl}methyl)pyrazole-4-carboxamide] | < 5.00 | < 5.00 |
| COCc1nn(Cc2ccc(Cn3ccccc3=O)cc2)cc1C(=O)NCCOc1cc(Cl)cc(OC)c1 [Example 11, N-[2-(3-chloro-5-methoxyphenoxy)ethyl]-3-(methoxymethyl)-1-({4-[(2-oxopyridin-1-yl)methyl]phenyl}methyl)pyrazole-4-carboxamide] | < 5.00 | < 5.00 |
| Cc1nn(Cc2ccc(Cn3ccccc3=O)cc2)cc1C(=O)NCCOc1cccc(Cl)c1 [Example 39, N-[2-(3-chlorophenoxy)ethyl]-3-methyl-1-({4-[(2-oxopyridin-1-yl)methyl]phenyl}methyl)pyrazole-4-carboxamide] | < 4.40 | 7.79 |
| CN(C)C(=O)c1ccc(Cn2cc(C(=O)NCCOc3cccc(Cl)c3)c(N)n2)cc1 [Example 59, 3-amino-N-[2-(3-chlorophenoxy)ethyl]-1-{[4-(dimethylcarbamoyl)phenyl]methyl}pyrazole-4-carboxamide] | < 4.40 | < 5.00 |
| Nc1c(C(=O)NCCOc2cccc(Cl)c2)cnn1Cc1ccc2[nH]ncc2c1 [Example 44, 5-amino-N-[2-(3-chlorophenoxy)ethyl]-1-(1H-indazol-5-ylmethyl)pyrazole-4-carboxamide] | < 4.40 | < 5.00 |
| Cc1nc(C(=O)NCCOc2cccc(Cl)c2)cn1Cc1ccc(Cn2ccccc2=O)cc1 [Example 43, N-[2-(3-chlorophenoxy)ethyl]-2-methyl-1-({4-[(2-oxopyridin-1-yl)methyl]phenyl}methyl)imidazole-4-carboxamide] | < 5.00 | 7.11 |

Second part, the molecule after the results:

| pIC50 [1] | pIC50 [2] | SMILES |
| --- | --- | --- |
| < 4.40 | 8.03 | COc1cc(Cn2cc(C(=O)NCCOc3cccc(Cl)c3)c(N)n2)ccc1Cn1ccccc1=O [Example 98, 3-amino-N-[2-(3-chlorophenoxy)ethyl]-1-({3-methoxy-4-[(2-oxopyridin-1-yl)methyl]phenyl}methyl)pyrazole-4-carboxamide] |
| < 4.40 | 5.50 | Nc1nn(Cc2ccnc(N3CCCC3=O)c2)cc1C(=O)NCCOc1cccc(Cl)c1 [Example 94, 3-amino-N-[2-(3-chlorophenoxy)ethyl]-1-{[2-(2-oxopyrrolidin-1-yl)pyridin-4-yl]methyl}pyrazole-4-carboxamide] |
| < 4.40 | < 5.00 | Nc1nn(Cc2ccc(C(=O)N3CCCCC3)cc2)cc1C(=O)NCCOc1cccc(Cl)c1 [Example 60, 3-amino-N-[2-(3-chlorophenoxy)ethyl]-1-({4-[(piperidin-1-yl)carbonyl]phenyl}methyl)pyrazole-4-carboxamide] |
| < 4.40 | 5.65 | Nc1nn(Cc2ccc(N3CCCC3=O)nc2)cc1C(=O)NCCOc1cccc(Cl)c1 [Example 96, 3-amino-N-[2-(3-chlorophenoxy)ethyl]-1-{[6-(2-oxopyrrolidin-1-yl)pyridin-3-yl]methyl}pyrazole-4-carboxamide] |
| < 4.40 | 5.95 | Nc1nn(Cc2ccc(-c3cccnc3)nc2)cc1C(=O)NCCOc1cccc(Cl)c1 [Example 97, 3-amino-N-[2-(3-chlorophenoxy)ethyl]-1-{[6-(pyridin-3-yl)pyridin-3-yl]methyl}pyrazole-4-carboxamide] |
| < 4.40 | < 5.00 | Nc1nn(Cc2cccc(Cl)n2)cc1C(=O)NCCOc1cccc(Cl)c1 [Example 81, 3-amino-N-[2-(3-chlorophenoxy)ethyl]-1-[(6-chloropyridin-2-yl)methyl]pyrazole-4-carboxamide] |
| < 4.40 | 8.21 | Nc1nn(Cc2ccc(Cn3cc(F)ccc3=O)cc2)cc1C(=O)NCCOc1cccc(Cl)c1 [Example 100, 3-amino-N-[2-(3-chlorophenoxy)ethyl]-1-({4-[(5-fluoro-2-oxopyridin-1-yl)methyl]phenyl}methyl)pyrazole-4-carboxamide] |
| < 4.40 | 7.88 | CC(CNC(=O)c1cn(Cc2ccc(Cn3ccccc3=O)cc2)nc1N)Oc1cccc(Cl)c1 (racemic) [Example 118, 3-amino-N-[(2R/S)-2-(3-chlorophenoxy)propyl]-1-({4-[(2-oxopyridin-1-yl)methyl]phenyl}methyl)pyrazole-4-carboxamide] |
| < 4.40 | 5.72 | Cc1nc2cc(Cn3cc(C(=O)NCCOc4cccc(Cl)c4)c(N)n3)ccc2n1C [Example 95, 3-amino-N-[2-(3-chlorophenoxy)ethyl]-1-[(1,2-dimethyl-1,3-benzodiazol-5-yl)methyl]pyrazole-4-carboxamide] |
| < 4.40 | 5.68 | Nc1nn(Cc2ccc(Cn3c(F)cccc3=O)cc2)cc1C(=O)NCCOc1cccc(Cl)c1 [Example 99, 3-amino-N-[2-(3-chlorophenoxy)ethyl]-1-({4-[(2-fluoro-6-oxopyridin-1-yl)methyl]phenyl}methyl)pyrazole-4-carboxamide] |
| < 4.40 | < 5.00 | CN(C)C(=O)c1cccc(Cn2cc(C(=O)NCCOc3cccc(Cl)c3)c(N)n2)c1 [Example 65, 3-amino-N-[2-(3-chlorophenoxy)ethyl]-1-{[3-(dimethylcarbamoyl)phenyl]methyl}pyrazole-4-carboxamide] |
| < 4.40 | < 5.00 | CNC(=O)c1cccc(Cn2cc(C(=O)NCCOc3cccc(Cl)c3)c(N)n2)c1 [Example 64, 3-amino-N-[2-(3-chlorophenoxy)ethyl]-1-{[3-(methylcarbamoyl)phenyl]methyl}pyrazole-4-carboxamide] |
| < 4.40 | < 5.00 | CN(CC(=O)O)c1cc(Cn2cc(C(=O)NCCOc3cccc(Cl)c3)c(N)n2)ccn1 [Example 67, ({4-[(3-amino-4-{[2-(3-chlorophenoxy)ethyl]carbamoyl}pyrazol-1-yl)methyl]pyridin-2-yl}(methyl)amino)acetic acid] |
| < 4.40 | 6.38 | COCc1nn(Cc2ccc(Cn3ccc(C)cc3=O)cc2)cc1C(=O)NCCOc1cccc(Cl)c1 [Example 104, N-[2-(3-chlorophenoxy)ethyl]-3-(methoxymethyl)-1-({4-[(4-methyl-2-oxopyridin-1-yl)methyl]phenyl}methyl)pyrazole-4-carboxamide] |
